Assay results taken from publication PMC9578396, “Intrinsic Antibacterial Activity of Xeruborbactam In Vitro: Assessing Spectrum and Mode of Action” (Antimicrobial Agents and Chemotherapy, 2022).
Where “and” joins values, the source holds several entries; their conditions need not be identical. Identical values can stand only once. Like-named read-outs stand apart in the source and are kept apart here.

What was measured:
Assay type in all cases: cell-based
[1] = test system: Klebsiella pneumoniae; test: microbe, parasite or virus in culture
Source text: (§1) (i) Panels of engineered bacterial strains containing various combinations of porin and efflux mutations were used. The construction of all the strains used in the study is described in detail in references, [44], and [45]. (ii) KPC-producing clinical isolates and their derivatives that lost KPC plasmids were used also. These strains and their origins are described in the Table S2. (iii) Finally, KPC-producing clinical isolates enriched in strains with porin mutations were used. The mutations identified include various deletions, insertions, nonsense mutations, and decreased expression. Most of the isolates were obtained from JMI Laboratories or International Health Management Associates (IHMA); they were collected in the course of global surveillance studies.
(§2) Bacterial isolates were subjected to broth microdilution susceptibility testing, performed according to Clinical and Laboratory Standards Institute (CLSI) methods ([46]), using panels prepared in-house. […] Xeruborbactam was synthesized at Qpex Biopharma, San Diego, CA. Avibactam was purchased from eNovation Chemicals LLC, Bridgewater, NJ, USA; zidebactam was from MedKoo Biosciences, Inc., Morrisville, NC, and nacubactam was from Advanced ChemBlocks, Hayward, CA. Durlobactam was synthesized at Acme Bioscience, Palo Alto, CA, USA.

[2] = test system: Acinetobacter baumannii; test: Broth microdilution MIC (CLSI), Acinetobacter baumannii; details: Acinetobacter baumannii
Source text: as §1, §2

[3] = test system: Pseudomonas aeruginosa; test: Broth microdilution MIC (CLSI), Pseudomonas aeruginosa
Source text: as §1, §2

[4] = test system: Escherichia coli; test: Broth microdilution MIC (CLSI), Escherichia coli; details: Escherichia coli
Source text: as §1, §2

[5] = Klebsiella pneumoniae, KPM1026a, parent, read-out: MIC
[6] = Klebsiella pneumoniae, KPM3532, TolQ::M189K
[7] = Klebsiella pneumoniae, KPM3534, TolQ::S31F
[8] = Klebsiella pneumoniae, KPM4235, TolQ::IP(183–1844)PR
[9] = Klebsiella pneumoniae, KPM4236, TolQ::TAA at aa 103
[10] = Klebsiella pneumoniae, KPM4238, TolQ::S25F
[11] = Klebsiella pneumoniae, KPM4239, TolQ::S28F
[12] = Klebsiella pneumoniae, KPM4240, TolQ::S25Y
[13] = Klebsiella pneumoniae, strain KPM1026a, wild type, read-out: MIC
[14] = Klebsiella pneumoniae, strain KPM1027, ramR, read-out: MIC
[15] = Klebsiella pneumoniae, strain KPM1171, ramR ompK36_1171, read-out: MIC
[16] = Klebsiella pneumoniae, strain KPM2040, ompK36_2040, read-out: MIC
[17] = Klebsiella pneumoniae, strain KPM2600, ΔompK35
[18] = Klebsiella pneumoniae, strain KPM2613, ΔompK35 ompK36_2040
[19] = Klebsiella pneumoniae, strain KPM2696, ΔacrB
[20] = strain AB1007, wild type, read-out: MIC
[21] = strain ACM1015, ΔadeIJK ΔadeABC
[22] = strain ACM1027, adeN (AdeIJK overexpression)
[23] = strain ACM1030, adeS (AdeABC overexpression)
[24] = Pseudomonas aeruginosa, strain PAM1020, wild type, read-out: MIC
[25] = Pseudomonas aeruginosa, strain PAM1032, nalB (MexAB-OprM overexpression)
[26] = Pseudomonas aeruginosa, strain PAM1033, nfxB (MexCD-OprJ overexpression)
[27] = Pseudomonas aeruginosa, strain PAM1034, nfxC (MexEF-OprN overexpression)
[28] = Pseudomonas aeruginosa, strain PAM1106, mexA::Tet
[29] = Pseudomonas aeruginosa, strain PAM1154, oprM::Hg
[30] = strain ECM5497, wild type, read-out: MIC
[31] = strain ECM6502, marR (AcrAB overexpression)
[32] = KPM3532 (TolQ::M189K), with xeruborbactam at 4 μg/mL
[33] = KPM3532 (TolQ::M189K), with xeruborbactam at 8 μg/mL
[34] = KPM3534 (TolQ::S31F), with xeruborbactam at 4 μg/mL
[35] = KPM3534 (TolQ::S31F), with xeruborbactam at 8 μg/mL
[36] = Klebsiella pneumoniae, KPM3532 (TolQ::M189K), alone
[37] = Klebsiella pneumoniae, KPM3534 (TolQ::S31F), alone
[38] = AB1007 (no beta-lactamase), xeruborbactam 0 µg/ml, read-out: MIC
[39] = AB1007, xeruborbactam 2 µg/ml, read-out: MIC
[40] = AB1007, xeruborbactam 4 µg/ml, read-out: MIC
[41] = AB1007, xeruborbactam 8 µg/ml, read-out: MIC
[42] = PAM1154 (oprM::Hg), xeruborbactam 0 µg/ml

SMILES: NC(=O)[C@@H]1CC[C@@H]2CN1C(=O)N2OS(=O)(=O)O [Avibactam]
- MIC [1, 5]: 16 mg/L
- MIC [1, 6]: > 64 mg/L
- MIC [1, 7]: > 64 mg/L
- MIC [1, 8]: > 64 mg/L
- MIC [1, 9]: > 64 mg/L
- MIC [1, 10]: > 64 mg/L
- MIC [1, 11]: > 64 mg/L
- MIC [1, 12]: > 64 mg/L
- MIC [1, 13]: 16 mg/L
- MIC [1, 14]: 16 mg/L
- MIC [1, 15]: > 256 mg/L
- MIC [1, 16]: 256 mg/L
- MIC [1, 17]: 16 mg/L
- MIC [1, 18]: 256 mg/L
- MIC [1, 19]: 16 mg/L
- MIC [2, 20]: > 256 mg/L
- MIC ([2]; strain ACM1013, ΔadeIJK): > 256 mg/L
- MIC ([2]; strain ACM1014, ΔadeABC): > 256 mg/L
- MIC [2, 21]: > 256 mg/L
- MIC [2, 22]: > 256 mg/L
- MIC [2, 23]: > 256 mg/L
- MIC ([3]; Pseudomonas aeruginosa, after inactivation of MexAB-OprM, read-out: MIC): 128 mg/L
- MIC ([3]; Pseudomonas aeruginosa, before inactivation of MexAB-OprM (wild type), read-out: MIC): > 256 mg/L
- MIC [3, 24]: > 256 mg/L
- MIC [3, 25]: > 256 mg/L
- MIC [3, 26]: 32 mg/L
- MIC [3, 27]: > 256 mg/L
- MIC [3, 28]: 128 mg/L
- MIC [3, 29]: 128 mg/L
- MIC [4, 30]: 16 mg/L
- MIC ([4]; strain ECM6001, ΔacrB): 16 mg/L
- MIC [4, 31]: 8 mg/L

SMILES: CO/N=C(\C(=O)N[C@@H]1C(=O)N2C(C(=O)[O-])=C(C[N+]3(C)CCCC3)CS[C@H]12)c1csc(N)n1 [Cefepime]
- fold below the MIC that corresponds to complete inhibition of KPC ([1]; KP1074, in the presence of 8 μg/mL xeruborbactam): 2- to 8 fold
- MIC ([1]; KP1074, with xeruborbactam 2 µg/ml): 0.5 mg/L
- MIC ([1]; KP1074, with xeruborbactam 4 µg/ml): 0.25 mg/L
- MIC ([1]; KP1074, with xeruborbactam 8 µg/ml): 0.125 mg/L
- MIC ([1]; KPM1026a (no beta-lactamase), xeruborbactam 0 µg/ml): 0.03 mg/L
- fold decrease compared to MIC of antibiotic alone ([1]; KPM1026a, with xeruborbactam at 4 μg/mL): 2 fold
- fold decrease compared to MIC of antibiotic alone ([1]; KPM1026a, with xeruborbactam at 8 μg/mL): 16 fold
- MIC ([1]; KPM1026a, xeruborbactam 2 µg/ml): 0.015 mg/L
- MIC ([1]; KPM1026a, xeruborbactam 4 µg/ml): 0.015 mg/L
- MIC ([1]; KPM1026a, xeruborbactam 8 µg/ml): 0.002 mg/L
- fold decrease compared to MIC of antibiotic alone [1, 32]: 2 fold
- fold decrease compared to MIC of antibiotic alone [1, 33]: 4 fold
- fold decrease compared to MIC of antibiotic alone [1, 34]: 4 fold
- fold decrease compared to MIC of antibiotic alone [1, 35]: 8 fold
- MIC ([1]; Klebsiella pneumoniae, BAA2814, KPC-3-producing KP1074 (BAA-2814), xeruborbactam none, read-out: MIC): 256 mg/L
- MIC ([1]; Klebsiella pneumoniae, KPM1026a, alone, read-out: MIC): 0.03 mg/L
- MIC [1, 5]: 0.03 mg/L
- MIC ([1]; Klebsiella pneumoniae, KPM1211 (KP1074 after loss of pKpQIL), read-out: MIC): 0.5 mg/L
- MIC ([1]; Klebsiella pneumoniae, KPM1271 (KPM1026a/KPC-3), alone, read-out: MIC): 4 mg/L
- MIC ([1]; Klebsiella pneumoniae, KPM1281 (KPM1026a/NDM-1), alone, read-out: MIC): 16 mg/L
- MIC [1, 36]: 0.06 mg/L
- MIC [1, 6]: 0.06 mg/L
- MIC [1, 37]: 0.125 mg/L
- MIC [1, 7]: 0.125 mg/L
- MIC ([1]; Klebsiella pneumoniae, KPM4127 (KPM3532 TolQ::M189K/KPC-3), alone): 8 mg/L
- MIC ([1]; Klebsiella pneumoniae, KPM4128 (KPM3534 TolQ::S31F/KPC-3), alone): 32 mg/L
- MIC ([1]; Klebsiella pneumoniae, KPM4129 (KPM3532 TolQ::M189K/NDM-1), alone): 8 mg/L
- MIC ([1]; Klebsiella pneumoniae, KPM4130 (KPM3534 TolQ::S31F/NDM-1), alone): 32 mg/L
- MIC [1, 8]: 0.125 mg/L
- MIC [1, 9]: 0.125 mg/L
- MIC [1, 10]: 0.125 mg/L
- MIC [1, 11]: 0.125 mg/L
- MIC [1, 12]: 0.125 mg/L
- MIC [1, 13]: 0.03 mg/L
- MIC [1, 14]: 0.25 mg/L
- MIC [1, 15]: 2 mg/L
- MIC [1, 16]: 0.125 mg/L
- MIC [1, 17]: 0.25 mg/L
- MIC [1, 18]: 0.25 mg/L
- MIC [1, 19]: 0.03 mg/L
- MIC [2, 38]: 2 mg/L
- MIC [2, 39]: 2 mg/L
- MIC [2, 40]: 1 mg/L
- MIC [2, 41]: 0.25 mg/L
- MIC [2, 20]: 4 mg/L
- MIC ([2]; strain ACM1013, ΔadeIJK): 4 mg/L
- MIC ([2]; strain ACM1014, ΔadeABC): 1 mg/L
- MIC [2, 21]: 0.25 mg/L
- MIC [2, 22]: 8 mg/L
- MIC [2, 23]: 32 mg/L
- MIC [3, 42]: 0.5 mg/L
- MIC ([3]; PAM1154, xeruborbactam 2 µg/ml): 0.125 mg/L
- MIC ([3]; PAM1154, xeruborbactam 4 µg/ml): 0.125 mg/L
- MIC ([3]; PAM1154, xeruborbactam 8 µg/ml): 0.06 mg/L
- MIC [3, 24]: 0.5 mg/L
- MIC [3, 25]: 4 mg/L
- MIC [3, 26]: 4 mg/L
- MIC [3, 27]: 0.5 mg/L
- MIC [3, 28]: 0.25 mg/L
- MIC [3, 29]: 0.125 mg/L
- MIC [4, 30]: 0.03 mg/L
- MIC ([4]; strain ECM6001, ΔacrB): 0.03 mg/L
- MIC [4, 31]: 0.125 mg/L

SMILES: CC(C)(O/N=C(\C(=O)N[C@@H]1C(=O)N2C(C(=O)[O-])=C(C[n+]3ccccc3)CS[C@H]12)c1csc(N)n1)C(=O)O [Ceftazidime]
- MIC ([1]; Klebsiella pneumoniae, BAA2814): 512 mg/L
- MIC [3, 42]: 1 mg/L
- MIC ([3]; PAM1154, xeruborbactam 2 µg/ml): 0.25 mg/L
- MIC ([3]; PAM1154, xeruborbactam 4 µg/ml): 0.25 mg/L
- MIC ([3]; PAM1154, xeruborbactam 8 µg/ml): 0.25 mg/L

SMILES: Nc1nc(/C(=C/CC(=O)O)C(=O)N[C@@H]2C(=O)N3C(C(=O)O)=CCS[C@H]23)cs1 [Ceftibuten]
- fold decrease compared to MIC of antibiotic alone [1]: 0.015 (4) fold and 0.008 (8) fold
- fold decrease compared to MIC of antibiotic alone [1, 32]: 2 fold
- fold decrease compared to MIC of antibiotic alone [1, 33]: 2 fold
- fold decrease compared to MIC of antibiotic alone [1, 34]: 2 fold
- fold decrease compared to MIC of antibiotic alone [1, 35]: 4 fold
- MIC ([1]; Klebsiella pneumoniae): 0.06 mg/L
- MIC [1, 36]: 0.125 mg/L
- MIC [1, 37]: 0.125 mg/L

SMILES: C[C@@H](O)[C@H]1C(=O)N2C(C(=O)O)=C(SCCN=CN)C[C@H]12 [Imipenem]
- MIC [2, 38]: 0.125 mg/L
- MIC [2, 39]: 0.125 mg/L
- MIC [2, 40]: 0.03 mg/L
- MIC [2, 41]: 0.015 mg/L
- MIC [3, 42]: 1 mg/L
- MIC ([3]; PAM1154, xeruborbactam 2 µg/ml): 0.5 mg/L
- MIC ([3]; PAM1154, xeruborbactam 4 µg/ml): 0.25 mg/L
- MIC ([3]; PAM1154, xeruborbactam 8 µg/ml): 0.125 mg/L
